Measured values from patent US9757355B2, “Oral dosage forms of cyclopropanecarboxylic acid {2-[(1S)-1-(3-ethoxy-4-methoxy-phenyl)-2-methanesulfonyl-ethyl]-3-oxo-2,3-dihydro-1H-isoindol-4-yl}-amide” (Celgene Corporation, priority 2011, dated 2017).
In brackets after ≈: the same amount, converted by molar mass.

Columns and labels:
[1] = target: Phosphodiesterase 4 enzyme; experiment: Inhibition of PDE4; assay type: biochemical; conditions: PDE4 purified from U937 human monocytic cells; 1 μM cAMP, 45 min at 30° C.
Procedure: Phosphodiesterase 4 enzyme was purified from U937 human monocytic cells by gel filtration chromatography, and phosphodiesterase reactions were carried out as previously described. See, e.g., Muller et al., Bioorg. Med. Chem. Lett., 1998, 8(19): 2669-2674. Briefly, reactions were carried out in 96-well deep-well plates in 50 mM Tris HCl pH 7.5, 5 mM MgCl2, 1 μM cyclic adenosine monophosphate (cAMP), plus 10 nM [^3H]-cAMP for 45 min at 30° C. The reactions were terminated by boiling, treated with 1 mg/ml snake venom, and separated using AG-1X8 ion exchange resin (BioRad). Reactions consumed less than 15% of available substrate.

TNF-α = experiment: In vivo LPS-induced TNF-α production assay; conditions: Rattus norvegicus, 1.5 h; p.o.; male CD rats, 0.05 mg/kg LPS, blood 90 minutes after LPS challenge; read-out: ED50, TNF-α levels in rat plasma
Procedure: Male CD rats procured from Charles River Laboratories at seven weeks of age are allowed to acclimate for one week prior to use. A lateral tail vein is cannulated percutaneously with a 22-gage over-the-needle catheter under brief isoflurane anesthesia. Rats are administered a PDE4 inhibitor of the invention either by intravenous injection via the tail vein catheter or oral gavage 15 to 180 min prior to injection of 0.05 mg/kg LPS (E. Coli 055:B5). Catheters are flushed with 2.5 mL/kg of normal injectable saline. Blood is collected via cardiac puncture 90 minutes after LPS challenge. Plasma is prepared using lithium heparin separation tubes and frozen at −80° C. until analyzed. TNF-α levels are determined using a rat specific TNF-α ELISA kit (Busywork). The ED50 values are calculated as the dose of the PDE4 inhibitor of the invention at which the TNF-α production is reduced to 50% of the control value.

Aqueous solubility = assay type: physicochemical; conditions: water (aqueous)
Procedure: Thus, there exists a need for alternative formulations of Compound A in order to increase the bioavailability of the drug upon oral administration. Provided herein are oral dosage forms addressing this need.
The above method results in a physically stable solid dispersion of Compound A having an aqueous solubility of about 2 μg/mL.

`CCOc1cc([C@@H](CS(C)(=O)=O)N2Cc3cccc(NC(=O)C4CC4)c3C2=O)ccc1OC` [Compound A, Cyclopropanecarboxylic acid {2-[(1S)-1-(3-ethoxy-4-methoxy-phenyl)-2-methanesulfonyl-ethyl]-3-oxo-2,3-dihydro-1H-isoindol-4-yl}-amide] showed an IC50 [1] of 105 nM, an ED50 (TNF-α) of ~7.8 µg/kg and a solubility (Aqueous solubility) of ~2 µg/mL (≈ 4.23 µM).
